These results are taken from ChEMBL document CHEMBL1201862, “PubChem BioAssay data set” (2004).

The target of test [1] is Voltage-gated inwardly rectifying potassium channel KCNH2 (Homo sapiens, UniProt Q12809). The following applies: Potency.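 Also: confirmatory quantitative high-throughput screen measuring inhibition of hERG channel activity.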
Test [2] has as its target T1, Heat shock factor protein 1 (Mus musculus, UniProt P38532).
T1 sequence (P38532 whole entry): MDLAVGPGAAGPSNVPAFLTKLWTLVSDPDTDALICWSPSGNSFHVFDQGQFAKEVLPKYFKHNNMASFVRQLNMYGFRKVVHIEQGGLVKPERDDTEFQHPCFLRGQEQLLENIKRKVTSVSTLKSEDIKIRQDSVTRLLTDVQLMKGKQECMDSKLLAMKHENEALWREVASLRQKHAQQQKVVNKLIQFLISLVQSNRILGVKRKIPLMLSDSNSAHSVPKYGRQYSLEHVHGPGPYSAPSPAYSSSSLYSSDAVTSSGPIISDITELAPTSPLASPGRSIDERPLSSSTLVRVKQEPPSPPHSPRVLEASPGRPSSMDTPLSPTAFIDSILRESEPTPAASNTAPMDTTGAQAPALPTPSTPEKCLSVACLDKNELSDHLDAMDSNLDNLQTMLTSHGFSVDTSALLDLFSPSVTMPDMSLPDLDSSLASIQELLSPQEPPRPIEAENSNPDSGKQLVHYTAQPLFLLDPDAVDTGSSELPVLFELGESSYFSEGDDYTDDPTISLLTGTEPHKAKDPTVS
The experiment in a line: HSF1 potentiators in luciferase reporter cells, confirmation, cell-based, NIH3T3, luminescence, dose retest (AID 435004).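 Also: stress induced by proteasome inhibitor MG132 added 30 min after compound; luciferase reporter driven by HSF1 response element in NIH3T3 cells; actives raise luminescence as potentiators of the MG132 stress response.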 It is filed as functional. In general terms: Reporter assays use an easily measured gene product as a stand-in for the process of interest.

The target of the next test is Genome polyprotein (dengue virus type 2, UniProt P29990). The experiment in a line: Dengue-2 NS5 methyltransferase inhibitors, primary screen, biochemical, confirmation dose response (AID 588689). It is filed as functional.
Another test concerns HeLa. The experiment in a line: HeLa cell cytotoxicity, dose response, cytotoxicity control for MITF activator project, CellTiter-Glo luminescence, cherry-pick samples (AID 540259). Type of test: functional, cell-based. As to conditions: Homo sapiens.
The target in test [3] is T2, Apoptotic protease-activating factor 1 (Homo sapiens, UniProt O14727).
T2 sequence (O14727 whole entry): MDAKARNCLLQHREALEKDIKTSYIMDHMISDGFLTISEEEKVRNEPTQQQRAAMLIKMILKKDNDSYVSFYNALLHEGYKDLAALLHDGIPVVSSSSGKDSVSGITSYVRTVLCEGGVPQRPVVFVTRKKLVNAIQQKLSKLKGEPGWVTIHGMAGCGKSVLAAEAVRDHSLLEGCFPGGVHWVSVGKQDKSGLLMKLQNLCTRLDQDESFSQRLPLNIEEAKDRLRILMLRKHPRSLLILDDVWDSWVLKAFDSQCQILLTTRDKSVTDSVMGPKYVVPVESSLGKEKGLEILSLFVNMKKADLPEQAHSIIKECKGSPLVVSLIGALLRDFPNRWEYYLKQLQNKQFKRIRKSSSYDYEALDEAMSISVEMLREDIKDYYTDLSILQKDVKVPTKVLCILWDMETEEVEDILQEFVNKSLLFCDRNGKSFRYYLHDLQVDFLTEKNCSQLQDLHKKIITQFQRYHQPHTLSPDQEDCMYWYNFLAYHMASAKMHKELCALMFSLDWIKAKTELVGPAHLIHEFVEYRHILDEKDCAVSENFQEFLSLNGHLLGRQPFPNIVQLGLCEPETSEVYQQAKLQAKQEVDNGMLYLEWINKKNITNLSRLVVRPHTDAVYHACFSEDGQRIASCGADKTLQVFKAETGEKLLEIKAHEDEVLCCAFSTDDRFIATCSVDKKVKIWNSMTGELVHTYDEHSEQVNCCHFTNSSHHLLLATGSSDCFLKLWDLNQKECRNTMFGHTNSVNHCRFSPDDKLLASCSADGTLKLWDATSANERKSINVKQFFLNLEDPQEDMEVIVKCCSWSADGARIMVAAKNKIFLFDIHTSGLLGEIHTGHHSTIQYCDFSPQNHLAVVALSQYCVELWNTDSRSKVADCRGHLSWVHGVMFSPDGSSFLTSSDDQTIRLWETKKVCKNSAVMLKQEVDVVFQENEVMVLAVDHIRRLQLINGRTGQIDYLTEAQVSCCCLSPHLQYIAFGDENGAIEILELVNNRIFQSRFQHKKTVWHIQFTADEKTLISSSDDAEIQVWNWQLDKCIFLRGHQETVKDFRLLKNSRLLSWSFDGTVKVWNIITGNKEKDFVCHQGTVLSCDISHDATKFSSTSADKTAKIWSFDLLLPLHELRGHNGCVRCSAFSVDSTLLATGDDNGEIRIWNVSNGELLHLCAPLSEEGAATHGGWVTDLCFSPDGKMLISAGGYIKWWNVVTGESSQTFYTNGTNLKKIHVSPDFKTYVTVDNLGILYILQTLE
It is filed as functional.

The nature of test [4]: inhibitors of intracellular T. cruzi replication, confirmation, NIH3T3 host cells, beta-gal luminescence (AID 2044).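 Also: intracellular parasites grown in NIH/3T3 mouse fibroblasts as host cells; luminescent beta-galactosidase reporter signal from transgenic T. cruzi replicating inside host cells; inhibitors lower the luminescence signal.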 Type of test: functional, cell-based.
Test [5] is described as follows: cytotoxicity toward NIH3T3 fibroblasts, dose response, counter-screen, cell-based, ATP luminescence, mouse fibroblasts (AID 2010).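 Also: cells exposed to compound for about 90 hours before reading.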 It is filed as functional. (In general: Counterscreens check selectivity or assay interference.)
Test [6] addresses T3, Polyadenylate-binding protein 1 (Homo sapiens, UniProt P11940). In words: PABP1 MLLE–PAM2 interaction inhibitors, dose response, miRNA deadenylation inhibitor project, biochemical, fluorescence polarization, Cy5-PAM2 peptide, secondary (AID 602260). Type of test: functional. The following applies: read-out: IC50_Mean.
The target in the next test is T4, Estrogen receptor (Homo sapiens, UniProt P03372).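 Also: potency for inhibiting coactivator peptide recruitment to the receptor.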
T4 sequence (P03372 whole entry): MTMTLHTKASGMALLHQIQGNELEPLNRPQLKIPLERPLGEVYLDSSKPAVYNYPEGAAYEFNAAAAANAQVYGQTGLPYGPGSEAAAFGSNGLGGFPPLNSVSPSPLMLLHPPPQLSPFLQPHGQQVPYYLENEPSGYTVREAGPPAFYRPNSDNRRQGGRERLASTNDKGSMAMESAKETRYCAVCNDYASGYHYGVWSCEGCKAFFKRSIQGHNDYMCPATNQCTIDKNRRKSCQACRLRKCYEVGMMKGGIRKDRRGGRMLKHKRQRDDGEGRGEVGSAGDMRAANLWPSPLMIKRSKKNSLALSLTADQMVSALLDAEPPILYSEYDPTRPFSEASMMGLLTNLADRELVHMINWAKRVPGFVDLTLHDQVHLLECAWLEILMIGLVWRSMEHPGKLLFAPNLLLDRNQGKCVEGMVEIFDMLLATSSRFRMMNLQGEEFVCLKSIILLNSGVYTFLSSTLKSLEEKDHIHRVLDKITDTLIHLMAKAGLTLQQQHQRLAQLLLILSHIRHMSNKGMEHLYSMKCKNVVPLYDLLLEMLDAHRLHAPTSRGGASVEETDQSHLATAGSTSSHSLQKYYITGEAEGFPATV

Test [7] addresses T3, Polyadenylate-binding protein 1. In words: PABP1 MLLE–PAM2 binding inhibitor potency, dose response, biochemical, fluorescence polarization, FITC-PAM2 peptide (AID 602259). It is filed as functional. The following applies: read-out: IC50_Mean.
Test [8] has as its system BJ. In words: cytotoxicity toward BJ-TERT-LT-ST fibroblasts, dose response, cell-based, RAS-independent, luminescence (AID 1935).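 Also: BJ fibroblasts immortalized with TERT plus LT and ST oncogenes.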 It is filed as functional. The following applies: Homo sapiens.
Test [9] is described as follows: cytotoxicity toward DRD oncogenic fibroblasts, dose response, cell-based, non-viral oncogenic, luminescence (AID 1934). It is filed as functional. As to conditions: Homo sapiens.
In test [10] the test system is BJ. In words: cells. It is filed as functional, cell-based. As to conditions: Homo sapiens.
Test [11] has as its system BJ. In words: cytotoxicity toward Ras-transformed BJeLR fibroblasts, dose response, cell-based, alamar blue fluorescence, cherrypicked samples (AID 2631).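 Also: confirmatory dose-response assay in RAS-dependent BJ fibroblasts engineered with TERT, LT and ST, with cytotoxicity read by fluorescence.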 Type of test: functional. As to conditions: Homo sapiens. A general note: Alamar Blue is a resazurin reagent that responds to reducing activity.
Test [12] deals with BJ. In words: cytotoxicity toward BJ-TERT fibroblasts, dose response, cell-based, RAS-independent, luminescence (AID 1933). It is filed as functional. The following applies: Homo sapiens.

Counter-ions that a name gives are not always drawn. Active and inactive are the calls of the source.

Chain of Voltage-gated inwardly rectifying potassium channel KCNH2 (Q12809 whole entry): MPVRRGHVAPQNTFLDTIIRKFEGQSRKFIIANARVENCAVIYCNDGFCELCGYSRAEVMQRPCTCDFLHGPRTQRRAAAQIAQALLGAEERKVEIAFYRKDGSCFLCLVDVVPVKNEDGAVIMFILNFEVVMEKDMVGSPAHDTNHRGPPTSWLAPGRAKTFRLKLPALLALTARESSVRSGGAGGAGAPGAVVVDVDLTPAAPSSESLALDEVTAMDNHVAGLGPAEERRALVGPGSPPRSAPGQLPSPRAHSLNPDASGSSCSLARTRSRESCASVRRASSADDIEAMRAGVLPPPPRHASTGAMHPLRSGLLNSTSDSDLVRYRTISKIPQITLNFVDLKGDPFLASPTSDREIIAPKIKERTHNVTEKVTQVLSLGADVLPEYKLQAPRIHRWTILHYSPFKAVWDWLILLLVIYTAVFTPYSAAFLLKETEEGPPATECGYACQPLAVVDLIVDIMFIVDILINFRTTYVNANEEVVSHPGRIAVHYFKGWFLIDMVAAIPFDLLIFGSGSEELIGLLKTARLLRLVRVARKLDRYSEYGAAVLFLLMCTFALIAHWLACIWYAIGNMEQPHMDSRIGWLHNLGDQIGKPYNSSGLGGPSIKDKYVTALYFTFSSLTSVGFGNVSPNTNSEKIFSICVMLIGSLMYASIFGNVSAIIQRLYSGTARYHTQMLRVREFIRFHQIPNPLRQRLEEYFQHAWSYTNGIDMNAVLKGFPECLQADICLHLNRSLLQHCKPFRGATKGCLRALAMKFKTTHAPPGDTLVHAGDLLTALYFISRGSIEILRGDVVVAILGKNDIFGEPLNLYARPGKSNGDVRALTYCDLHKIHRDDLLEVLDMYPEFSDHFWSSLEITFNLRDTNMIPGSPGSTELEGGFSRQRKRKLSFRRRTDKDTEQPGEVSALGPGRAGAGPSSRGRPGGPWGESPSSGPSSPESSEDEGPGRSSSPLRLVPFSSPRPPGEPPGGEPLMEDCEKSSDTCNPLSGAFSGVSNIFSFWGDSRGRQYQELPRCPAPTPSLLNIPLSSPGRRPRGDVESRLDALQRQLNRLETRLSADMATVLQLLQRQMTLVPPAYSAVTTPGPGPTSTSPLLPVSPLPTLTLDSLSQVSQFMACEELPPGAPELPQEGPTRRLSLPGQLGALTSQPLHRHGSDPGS
Chain of Genome polyprotein (P29990 2492-3391 limits assumed): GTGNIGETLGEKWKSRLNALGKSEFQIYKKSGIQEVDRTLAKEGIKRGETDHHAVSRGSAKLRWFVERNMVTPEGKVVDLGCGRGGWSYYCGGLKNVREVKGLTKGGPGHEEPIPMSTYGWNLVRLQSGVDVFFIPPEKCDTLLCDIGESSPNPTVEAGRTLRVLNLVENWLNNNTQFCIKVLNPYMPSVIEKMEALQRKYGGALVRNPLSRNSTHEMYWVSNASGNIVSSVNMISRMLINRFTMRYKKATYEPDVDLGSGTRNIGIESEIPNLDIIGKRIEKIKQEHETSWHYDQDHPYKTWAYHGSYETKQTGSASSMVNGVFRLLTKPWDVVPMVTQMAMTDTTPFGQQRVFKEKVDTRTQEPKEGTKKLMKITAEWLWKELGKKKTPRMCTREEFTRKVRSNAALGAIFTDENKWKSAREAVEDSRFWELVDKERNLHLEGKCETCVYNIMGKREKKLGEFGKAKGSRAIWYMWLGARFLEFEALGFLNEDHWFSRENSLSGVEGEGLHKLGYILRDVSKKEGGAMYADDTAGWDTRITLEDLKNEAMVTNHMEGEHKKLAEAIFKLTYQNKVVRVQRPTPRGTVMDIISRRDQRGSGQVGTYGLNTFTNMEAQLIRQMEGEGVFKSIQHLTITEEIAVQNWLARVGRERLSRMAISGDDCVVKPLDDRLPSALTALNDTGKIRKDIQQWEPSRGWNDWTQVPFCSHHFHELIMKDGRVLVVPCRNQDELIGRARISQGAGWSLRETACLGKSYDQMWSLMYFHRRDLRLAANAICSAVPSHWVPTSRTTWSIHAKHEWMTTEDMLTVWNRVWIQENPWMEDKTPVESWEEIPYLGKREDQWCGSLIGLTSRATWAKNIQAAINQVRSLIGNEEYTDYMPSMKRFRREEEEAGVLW
T3 sequence (P11940 whole entry): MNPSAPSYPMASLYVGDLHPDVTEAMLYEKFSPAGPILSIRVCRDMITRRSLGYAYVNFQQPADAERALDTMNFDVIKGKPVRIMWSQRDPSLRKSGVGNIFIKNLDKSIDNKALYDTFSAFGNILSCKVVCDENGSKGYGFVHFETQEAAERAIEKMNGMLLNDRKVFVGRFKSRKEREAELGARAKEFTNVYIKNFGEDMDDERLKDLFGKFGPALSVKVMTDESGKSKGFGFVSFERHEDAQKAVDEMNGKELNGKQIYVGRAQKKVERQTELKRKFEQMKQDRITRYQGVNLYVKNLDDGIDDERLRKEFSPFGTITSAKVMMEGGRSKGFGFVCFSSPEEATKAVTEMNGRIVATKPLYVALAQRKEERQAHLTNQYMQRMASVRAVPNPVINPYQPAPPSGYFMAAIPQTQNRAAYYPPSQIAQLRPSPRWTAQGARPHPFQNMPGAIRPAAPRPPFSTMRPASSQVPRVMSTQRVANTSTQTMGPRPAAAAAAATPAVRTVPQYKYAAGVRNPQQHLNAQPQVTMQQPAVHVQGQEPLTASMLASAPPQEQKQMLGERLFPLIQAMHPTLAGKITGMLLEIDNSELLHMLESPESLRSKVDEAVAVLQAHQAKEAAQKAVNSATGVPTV

By AC50 is commonly meant the concentration at which the activity in the assay is half-maximal. Take `C[C@H](N)CN1CCc2ccc(Br)cc21`: the AC50 in test [1] was 20 µM (inconclusive).
For orientation: EC50 means the concentration giving half of the maximal effect. Take `O=C(O)C(Cc1ccccc1)N1C(=O)c2c(Cl)c(Cl)c(Cl)c(Cl)c2C1=O` (stereo unspecified): the EC50 in test [2] was 37.1 µM (active). Further, the IC50 on Genome polyprotein is 39.7 µM (active).
Consider `CCn1cnc2c(Nc3cccc(Cl)c3)nc(N[C@@H]3CCCC[C@@H]3N)nc21`, for which the AC50 in [1] is 17.8 µM (inconclusive).
Take `CC(=O)Nc1c(-c2ccc3ccccc3c2)nc2ccccn12`: the AC50 in the test on HeLa is 213 µM (active).
As for `COc1ccc(CN(C)C(=O)c2cc(S(=O)(=O)NCc3ccccc3)ccc2C)c(OC)c1`, the IC50 in [3] was > 100 µM (inactive).
For `C#C[C@]1(O)CC[C@H]2[C@@H]3CCC4=Cc5oncc5CC4(C)[C@H]3CCC21C` (stereo partly specified), in test [1], the AC50 was 1.58 µM (inconclusive).
For `CCCCC1=CC2=CC(=O)C(C)(OC(=O)CC)C(=O)C2=CN1Cc1ccc(OC)cc1` (stereo unspecified), the IC50 at Genome polyprotein was > 100 µM (active).
For `CCOC(=O)C1OC1c1ccccc1` (stereo unspecified), in [1], the AC50 is 35.5 µM (inconclusive).
Consider `Cc1ccc(Nc2cc(C)c3c(O)cccc3n2)cc1C`, for which, in the test on HeLa, the AC50 is 34.5 µM (active). The EC50 in [4] is 2.81 µM (active); in test [5], > 30 µM (not active).
Take `Cc1cc(CN(C)C(=O)c2ccc3nc(Cc4ccccc4F)oc3c2)on1`: the AC50 in the test with HeLa is 68.2 µM (active).
In the case of `O=S(=O)(/N=C(/Sc1ccccc1)c1ccccc1)c1ccccc1`, the IC50 in test [6] was > 66 µM (inactive); on Estrogen receptor, 10.2 µM (active); in [7], > 66 µM (inactive).
With `O=[N+]([O-])c1ccccc1N/N=C\c1ccccc1Cl`, the EC50 is > 150 µM (not active) with BJ [8]; 29.8 µM (inconclusive) in [9]; 103 µM (active) in the test on BJ [10]; > 133 µM (inactive) in the test on BJ [11]; > 150 µM (not active) in the test on BJ [12].
Consider `CC(=O)c1ccc(NC(=O)c2noc3c2CCCCC3)cc1`, for which the AC50 with HeLa is > 350 µM (inactive).
Regarding `[H][C@]12[N@]3CC=C[C@@]1(CC)[C@@H](OC(C)=O)[C@](O)(C(=O)OC)C1N(C)c4cc(OC)c([C@@]5(C(=O)OC)CC6CN(CCc7c5[nH]c5ccccc75)CC(O)(CC)C6)cc4[C@@]12CC3` (stereo partly specified), the AC50 in test [1] was 35.5 µM (inconclusive).
`C1=C(c2cc3ccccc3cn2)CCCC1`: in the test with HeLa, the AC50 was 51.3 µM (active).
With `C(=NC1CCCCC1)=NC1CCCCC1` [DICYCLOHEXYLCARBODIIMIDE], the AC50 in [1] is 70.8 µM (inconclusive).
The same measure, in the same setting: the same measure for `COC(=O)[C@H]1[C@H]2C[C@H]3c4[nH]c5ccccc5c4CCN3C[C@H]2CC[C@@H]1O` [RAUWOLSCINE HYDROCHLORIDE]: 25.1 µM (inconclusive).
